Reference: US7560439B2, “Method for increasing the gene expression of transfected genes” (Sigma-Tau Industrie Farmaceutiche Riunite S.p.A., priority 2000, dated 2009)
Values joined by “and” are separate entries in the source; they are usually repeats but may differ in a detail not shown here. Identical values can stand only once.

How the values were obtained:
[1] = test system: transfected intracellular plasmidic DNA (pRL-CMV) in HeLa cells; assay: Slot blot quantification of transfected intracellular plasmidic DNA; format: cell-based
Description: To verify if the positive effect of ALC on luciferase activity was related to an activation of transcriptional machinery or to an increasing of cell permeability, we decided to quantify the total amount of transfected intracellular plasmidic DNA by Slot blot analysis.
Cell culture. Cervical carcinoma cell line HeLa (ATCC) were maintained in RPMI medium (Europio) supplemented with 10% foetal calf serum, 1% P/S in a humidified atmosphere with 5% CO2 ALC treatment 5×10^6 cells were plated in a 125-cm^3 flask and maintained in RPMI, supplemented as described above, containing ALC at two concentrations (5 mM and 10 mM) 4 days before transfection. The treatment was repeated at the end of transfection. Untreated cells were cultured in the same condition and used as control.
Transient Expression of pRL-CMV. 10^5 cells/well were plated 1 day before transfection in 12 multiwells plate (Corning). DOTAP liposome (Boehringer-Mannheim, Indianapolis, Ind.) and pRL-CMV plasmid (Promega cat. N° E2261) were used for transfection, 6 wells/sample. Briefly, 1.5 μg/well of DNA and a water solution of liposome at 9.2 μM were mixed at room temperature (25 μl/sample) to form DNA-liposome complex. After incubation for 30 min, the same volume/well of HBS 2× (20 mM HEPES, 150 mM NaCl, pH 7.4) was added and the transfection mixture was aliquotated (50 μl/well in supplemented medium). The cells were incubated with the complex for 5 h and the complex removed by washing with PBS (phosphate-buffered saline, pH 7.4, Ca^++ and Mg^++ free). Cells were maintained in supplemented medium, containing ALC, for 24h and then used for analysis. Nude DNA in HBS 1× (pRL-CMV) was transfected as control.
DNA extraction. Total cellular DNA was extracted by alkaline lysis from transfected cells according to the method reported by Maniatis. After washing with PBS, cells were collected with PBS (1 ml/well) and centrifuged at 1500×g for 10 min at r.t.
According to protocol, each pellet, placed on ice, was lysed using: 100 μl of solution I [50 mM glucose, 25 mM Tris-HCl (pH=8), 10 mM EDTA (pH=8)], 200 μl of solution II [0.2 N NaOH, 1% SDS], 150 μl of solution III (5M potassium acetate, glacial acetic acid]. After centrifugation at 12000×g for 5 min at 4° C., surnatant was collected and DNA was precipitated with EtOH. Pellet was resuspended in TE 1× (50 μl/sample).
Probe labelling. The probe, the luciferase gene, was obtained by digestion of pRL-CMV with HindIII for 2 h at 37° C. and then with BamHI in the same condition. After digestion, the mixture was electrophoresed on 0.8% agarose gel in TAE 1× buffer (40 mM Tris-HCl (pH 7.8), 1.1 mM EDTA and 37 mM sodium acetate) and the fragment corresponding to luciferase gene was isolated by excision. The labelling of luciferase gene was performed using the Rediprime II DNA labelling system (Amersham Pharmacia biotech, cat n. RPN 1633) and Redivue stabilised [α-^32P]dCTP (Amersham Pharmacia biotech, cat n. AA 0005) according to purchased protocol.
Slot Blot. DNA samples were absorbed on positively charged Nylon membrane (Boehringer, cat. n. 1209299) using Biorad Slot Blot apparatus. The DNA was linked to the filter by U.V. Stratalinker-2400 (Stratagene). After pre-incubation of the filter with QuikHyb Hybridization Solution (Stratagene, cat. n. 201220) for 20 min at 68° C., 2.5×10^6 cpm/ml of labelled probe was added, after boiling, with salmon sperm DNA, for 2 min. The hybridization was performed at 68° C. for 1 h, and then the filter was washed twice with buffer I (SSC 2×, SDS 0.1%) for 15 min at room temperature and then with buffer II (SSC 0.1×, SDS 0.1%) for 30 min at 60° C. The filter was exposed to “Phosphor Imager” box and then analysed by densitometry using a IPlab Gel software.

[2] = test system: luciferase expression from transfected pRL-CMV plasmid in HeLa cells; assay: Luciferase assay in HeLa cells transiently transfected with pRL-CMV plasmid; format: cell-based; conditions: for RLU/mg mean: HeLa 100000/12-well plates, 1.5 μg/well
Description: Cell cultures. The uterine cervical carcinoma cell line HeLa, ATCC was used. The cells were cultured in RPMI 1640 Medium (eurobio), containing antibiotics and 10% foetal calf serum.
Treatment with acetyl-L-carnitine (ALC). 4×10^6 and 5×10^6 cells cultured in a medium containing ALC at final concentrations of 5 mM and 10 mM, respectively, were seeded in two 125 cm^3 flasks, whereas 2×10^6 cells not treated with ALC were plated in a 75 cm^3 flask. The treatment was repeated after 48 h (coinciding with the seeding of the cells for transfection) and after 72 h (at the end of transfection) and was also repeated after 120 h only in the case of samples transfected for lysis at 72 h.
Transient transfection of pRL-CMV plasmid. The cells were seeded for transfection 24 h before in 12-well plates (Corning), in amounts corresponding to 10^5 cells per well. The transfection was carried out in triplicate for each sample using the liposome DOTAP (Boehringer-Mannheim, Indianapolis, Ind.) and the plasmid pRL-CMV (Promega cat. N° E2261). In brief, 1.5 μg/well of DNA and 9.2 μM/well of liposome were used per sample, considering a final volume of 1050 μl/sample; the transfection mixture (25 μl /sample) was left at ambient temperature for 30 min and then HBS 2× (20 mM HEPES, 150 mM NaCl, pH 7.4) was added in amounts of 25 μl/ sample, and 50 μl/sample of the solution thus obtained was added to the cells for 5 hours. After carrying out three washings with PBS (phosphate buffer pH 7.4) without calcium and magnesium, the cells were cultured in growth medium containing ALC at the concentrations indicated in the treatments up to the time of cell lysis for the luciferase assay. As a control, naked DNA was added in a 1× HBS solution.
The cells were washed with PBS (phosphate buffer pH 7.4) without calcium and magnesium and subjected to lysis by means of the addition of 200 μl of lysis buffer contained in the GeneLux L002-100 kit (Wallac) used for the luciferase assay. After 20 min, total proteins were collected and 10 μl of each sample were assayed for luciferase, following the procedures indicated in the kit; the assay was carried out in 96-multiwell plates using the Victor^2 luminometer (Wallac). The luminescence readings obtained, expressed in relative light units (RLU), were normalised for mg of total proteins, calculated using the Bradford Method.

[3] = Dotap/DNA complex + ALC 5 mM, slots 19-24
[4] = Dotap/DNA complex + ALC 10 mM, slots 31-36
[5] = nude DNA + ALC 5 mM, slots 13-18

CC(=O)O[C@H](CC(=O)[O-])C[N+](C)(C)C [ALC, acetyl L-carnitine]
Slot blot densitometry vs untreated ([1]; 10 mM ALC): little decrease
Slot blot densitometry, transfected cells in presence vs absence of ALC ([1]; 24 h after transfection): no difference
densitometric volume, mean [1, 3]: 240634.5 relative units
densitometric volume, single values [1, 3]: 222013 relative units and 255756 relative units and 253422 relative units and 234654 relative units and 239053 relative units and 238909 relative units
densitometric volume, mean [1, 4]: 165345 relative units
densitometric volume, single values [1, 4]: 173870 relative units and 225644 relative units and 116848 relative units and 114911 relative units and 157762 relative units and 203035 relative units
densitometric volume, mean ([1]; Nude DNA + ALC 10 mM, slots 25-30): 52595.2 relative units
densitometric volume, mean [1, 5]: 61441.5 relative units
densitometric volume, single values [1, 5]: 59846 relative units and 58324 relative units and 61431 relative units and 70373 relative units and 63045 relative units and 55630 relative units
RLU/mg mean ([2]; 5 mM ALC + ETS (no Dotap)): 17,025 RLU/mg
RLU/mg mean ([2]; 5 mM ALC + LUC (no Dotap)): 18,060 RLU/mg
RLU/mg mean ([2]; 5 mM ALC + dota + LUC): 779,340 RLU/mg
RLU/mg mean ([2]; 5 mM ALC + dotap + ETS): 22,411 RLU/mg
increase of mean RLU per mg of total proteins as compared to untreated samples ([2]; 5 mM ALC, lysates at 24 h): approximately 1.6 fold
RLU/mg mean ([2]; 10 mM ALC + ETS (no Dotap)): 17,724 RLU/mg
RLU/mg mean ([2]; 10 mM ALC + LUC (no Dotap)): 20,481 RLU/mg
RLU/mg mean ([2]; 10 mM ALC + dotap + ETS): 20,520 RLU/mg
RLU/mg mean ([2]; 10 mM ALC + dotap + LUC): 750,034 RLU/mg
luciferase expression compared with 5 mM ALC ([2]; 10 mM ALC, lysates at 24 h): no additional increase
RLUs per mg of proteins, treated vs untreated samples ([2]; lysates at 48 h after transfection): no significant differences
luciferase expression ([2]; lysates at 72 h): no luciferase expression
